Measured values as given in ChEMBL document CHEMBL1201862, “PubChem BioAssay data set” (2004).
Calls of active or inactive are those of the source.

Tests used:
[1] = biological target: ADP-ribosylation factor GTPase-activating protein 1 (Rattus norvegicus, UniProt Q62848); test: Fluorescence polarization-based biochemical high throughput dose response screening assay to identify inhibitors of ADP-ribosylation factor GTPase activating protein 1 (ARFGAP1).; format: functional
[2] = biological target: T1, Corticotropin-releasing factor receptor 2/Corticotropin-releasing factor-binding protein (Homo sapiens, UniProt P24387+Q13324); test: Dose Response confirmation of uHTS hits for small molecule antagonists of the CRF-binding protein and CRF-R2 receptor complex.; format: functional; settings: read-out: IC50_Mean
T1 sequence (Q13324 whole entry): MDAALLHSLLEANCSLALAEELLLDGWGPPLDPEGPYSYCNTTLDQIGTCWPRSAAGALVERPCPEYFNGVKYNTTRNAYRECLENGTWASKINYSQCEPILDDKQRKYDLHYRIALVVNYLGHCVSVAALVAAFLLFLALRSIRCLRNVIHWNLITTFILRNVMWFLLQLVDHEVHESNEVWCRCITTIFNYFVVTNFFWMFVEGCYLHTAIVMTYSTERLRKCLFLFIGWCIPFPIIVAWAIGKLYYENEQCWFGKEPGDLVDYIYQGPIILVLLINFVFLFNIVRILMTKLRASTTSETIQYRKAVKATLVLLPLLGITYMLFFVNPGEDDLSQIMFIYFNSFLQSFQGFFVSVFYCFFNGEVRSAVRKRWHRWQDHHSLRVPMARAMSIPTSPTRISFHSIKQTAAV
T1 sequence (P24387 whole entry): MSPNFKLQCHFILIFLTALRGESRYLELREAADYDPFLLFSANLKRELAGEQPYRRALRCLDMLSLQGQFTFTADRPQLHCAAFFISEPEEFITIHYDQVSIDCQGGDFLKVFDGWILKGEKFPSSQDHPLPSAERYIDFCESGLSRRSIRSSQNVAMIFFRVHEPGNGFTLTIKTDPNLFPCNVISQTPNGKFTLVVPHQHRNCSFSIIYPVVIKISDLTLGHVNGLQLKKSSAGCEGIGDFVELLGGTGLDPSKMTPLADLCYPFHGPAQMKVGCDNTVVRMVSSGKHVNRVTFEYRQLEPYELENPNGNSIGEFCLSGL

[3] = biological target: T1, Corticotropin-releasing factor receptor 2/Corticotropin-releasing factor-binding protein; test: activators of CRF receptor 2 with binding protein – uHTS hits, confirmation (AID 602473); format: functional; settings: read-out: EC50_Mean
[4] = CRF-BP/CRF-R2 complex antagonists, dose response, cell-based, uHTS hits, 384-well (AID 651639); format: functional, Homo sapiens; settings: read-out: IC50_Mean
[5] = biological target: T2, Sentrin-specific protease 1 (Homo sapiens, UniProt Q9P0U3); test: potency of human SENP1 inhibitors, dose response, biochemical, kinetic FRET (AID 651697); format: functional; settings: read-out: IC50_Mean
T2 sequence (Q9P0U3 whole entry): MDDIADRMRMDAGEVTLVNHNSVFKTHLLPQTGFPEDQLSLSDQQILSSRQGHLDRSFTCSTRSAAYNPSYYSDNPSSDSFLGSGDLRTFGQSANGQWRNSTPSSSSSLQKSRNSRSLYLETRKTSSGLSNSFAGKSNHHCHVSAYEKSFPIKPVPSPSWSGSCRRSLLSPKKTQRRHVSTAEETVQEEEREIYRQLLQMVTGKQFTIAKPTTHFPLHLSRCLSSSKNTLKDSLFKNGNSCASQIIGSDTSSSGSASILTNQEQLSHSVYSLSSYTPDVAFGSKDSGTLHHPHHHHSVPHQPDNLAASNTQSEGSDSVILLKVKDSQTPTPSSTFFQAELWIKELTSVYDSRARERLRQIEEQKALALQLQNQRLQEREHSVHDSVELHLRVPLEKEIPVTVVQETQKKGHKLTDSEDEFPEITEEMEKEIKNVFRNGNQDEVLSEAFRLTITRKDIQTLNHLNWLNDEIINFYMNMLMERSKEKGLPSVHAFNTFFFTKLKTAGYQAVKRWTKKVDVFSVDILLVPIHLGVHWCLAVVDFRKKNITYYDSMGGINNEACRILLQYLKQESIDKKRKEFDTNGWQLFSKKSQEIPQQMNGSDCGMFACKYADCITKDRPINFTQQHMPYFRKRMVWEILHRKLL

[6] = biological target: T2, Sentrin-specific protease 1; test: Dose response confirmation of small molecule inhibitors of the catalytic domain of the SUMO protease, SENP1 in a FRET assay.; format: functional; settings: read-out: IC50_Mean
Interleukin-8 = biological target: T3, Interleukin-8 (Homo sapiens, UniProt P10145); test: Dose Response confirmation of uHTS small molecule hits for cystic fibrosis induced NFkb Inhibitors in a PAF-induced IL8 counterscreen.; format: functional; settings: read-out: IC50_Mean
T3 sequence (P10145 whole entry): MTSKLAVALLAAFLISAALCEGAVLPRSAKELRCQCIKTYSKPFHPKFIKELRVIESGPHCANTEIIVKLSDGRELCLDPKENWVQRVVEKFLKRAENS

ADP-ribosylation factor GTPase-activating protein 1, sequence (Q62848 whole entry): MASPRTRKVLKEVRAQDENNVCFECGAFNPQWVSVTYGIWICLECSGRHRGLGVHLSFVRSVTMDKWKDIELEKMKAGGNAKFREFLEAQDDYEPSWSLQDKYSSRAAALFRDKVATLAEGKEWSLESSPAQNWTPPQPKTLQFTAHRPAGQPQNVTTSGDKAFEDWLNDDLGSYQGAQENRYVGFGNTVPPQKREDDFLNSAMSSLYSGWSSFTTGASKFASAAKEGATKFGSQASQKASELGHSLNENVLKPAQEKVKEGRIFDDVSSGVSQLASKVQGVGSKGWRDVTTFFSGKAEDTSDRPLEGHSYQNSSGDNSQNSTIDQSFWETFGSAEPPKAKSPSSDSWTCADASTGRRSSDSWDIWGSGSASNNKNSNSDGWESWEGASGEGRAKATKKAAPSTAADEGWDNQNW

| IC50 [2] | EC50 [3] | IC50 [4] | SMILES | other results |
| --- | --- | --- | --- | --- |
| – | – | – | O=C(Cn1c2ccc(F)cc2c2nc3n(c(=O)c21)CCS3)Nc1ccccc1C(F)(F)F | IC50 [1]: 50.1 µM (inactive) |
| 27.5 µM (active) | > 53 µM (inactive) | > 20 µM (inactive) | CCc1ccc(-c2cc(C)no2)cc1S(=O)(=O)Nc1ccc(Cl)cn1 | – |
| 32.2 µM (active) | > 53 µM (inactive) | 2.57 µM (active) | Cc1cccc(CSc2ccc3nnc(-c4cccs4)n3n2)c1 | – |
| – | – | – | CCOC(=O)c1c(O)nc2ccc(Cl)c3c2c1-c1ccccc1C3=O | IC50 [5]: 18.3 µM (active); IC50 [6]: 2.75 µM (active) |
| – | – | – | COCCNc1nc(Oc2cncc(Cl)c2)c2sccc2n1 | IC50 (Interleukin-8): 29.2 µM (inactive) |
